Legend:
MUC1-fs = test: BRD-4780 treatment in fs/+ knock-in mice, kidney MUC1-fs by IF and Western blot; assay type: in vivo, mouse
Procedure: Mice were anesthetized with 3 L/min 02 mixed with 3% isoflurane using the Combi-Vet® system (Rothacher Medical, Bern, Switzerland) for 5 min. Mouse kidneys were removed, sagittally cut to half and rapidly frozen in Tissue-Tek® O.C.T. Compound, Sakura® Finetek (OCT) (25608-930, VWR) using dry ice and 100% ethanol. Five […] sagittal cryosections (CM1950, Leica) were thaw mounted on microscope slides (Fisherbrand™ Superfrost™ Plus, Fisher Scientific) and kept in the cryostat (at −26° C.) for the duration of the sectioning process. Sections were immersion-fixed for 10 min in 4% PFA (15710, Electron Microscopy Sciences), then washed in PBS. The slides were then subjected to antigen retrieval by immersion in 10 mM citric acid buffer (pH=6), for 10 minutes at 95° C. […]
MUC1-fs and MUC1-wt mean intensities were calculated in kidney sections of mice treated with either vehicle or BRD-4780 (FIGS. 4A, 4B and 12A). As MUC1-fs and MUC1-wt levels varied in different kidney regions, and as sections might contain different portions of the different kidney regions, the levels of these proteins were analyzed only in NCC-positive distal convoluted tubules. […] Each fluorescent channel intensity was measured and a threshold was set for the identification of NCC positive cells. MUC1-fs and MUC1-wt levels were then calculated only in the NCC positive cells. […]

Plasma stability = assay type: in vitro ADME
Procedure: Plasma stability was determined at 37° C. at 5 hr in plasma. Each compound was prepared in duplicate at 5 μM in plasma diluted 50/50 (v/v) with PBS pH 7.4 (0.95% acetonitrile, 0.05% DMSO). Duplicate plates were prepared. One plate was incubated at 37° C. for 5 hr with a 350 rpm orbital shake, while the other plate was immediately quenched. Each well was quenched by adding acetonitrile to a 3:1 ratio (v/v, ACN/plasma). After quenching, samples were centrifuged (32×G) to pellet precipitated particulates and an aliquot of supernatant was diluted 50/50 (v/v) with water. The resulting solution was analyzed by UPLC-MS/MS with compounds detected by MRM detection on a triple quadrupole mass spectrometer. The compound peak areas at 0 and 5 hr were compared to determine a percent remaining. Percent remaining in plasma was calculated through the following equation: % remaining=[area (5 hr)/area (0 hr)]×100. (LC System, Waters Acquity I-Class; MS System, AB Sciex Triple Quad 4500; Column, Waters Acquity UPLC BEH C18, 1.7 μm, 2.1×50 mm; Mobile Phase A, Water with 0.1% formic acid; Mobile Phase B, Acetonitrile with 0.1% formic acid; Flow Rate, 0.90 mL/min; Column Temperature, 55° C.).

In the case of `CC(C)[C@@H]1[C@H]2CC[C@H](C2)[C@H]1N` (racemic) [BRD-4780, 2-endo-amino-3-exo-isopropylbicyclo[2.2.1]heptane], the “MUC1-fs in kidney tissue at highest dose” value (MUC1-fs; fs/+ mice, 50 mg/kg daily oral gavage, 7 days) is reported as “nearly indistinguishable from control (+/+) mouse kidneys”, the “MUC1-fs protein in mouse kidneys” value (MUC1-fs; mouse, in vivo) is reported as “dose-dependent removal of mutant MUC1-fs protein” and the plasma stability (Plasma stability) is reported as “good microsomal and plasma stability”.

From US12023308B2, “Agents for reversing toxic proteinopathies” (THE BROAD INSTITUTE, INC., priority 2019, dated 2024)
